2 compounds from US20110008388A1, “PIGLET FEED RATIONS HAVING LOW LEVELS OF FERMENTABLE CARBOHYDRATES” (NOVUS INTERNATIONAL INC., priority 2007, published 2011) can be followed below.

Assay [1] has as its system nursery pigs. In words: Example 4: organic trace minerals and antibiotics with GEM blend in low lactose diets, nursery pig performance (BW, ADG, ADFI, GF). The assay is classed as in vivo. The conditions noted are these: Phase I, 0 to 7 days post weaning; regardless of lactose level; P<0.07. Here is the method: Forty-two pens of pigs with about 20-25 pigs/pen blocked by weight were used. Pig body weights were collected initially (day 0) and at the end of each phase (days 7 and 21 post weaning). Feed consumption was measured from days 0-7 (Phase I) and from days 8-21 (Phase II) post weaning. Growth rate was calculated as average daily gain (ADG), daily feed intake was calculated as average daily feed intake (ADFI) and feed efficiency was calculated as the ratio of gain:feed (GF).
Phase I was from day 0 to 7 post weaning and Phase II was from day 8 to 21 post weaning. Composition and analysis of the experimental diets used in Phase I are described in Tables 18 and 19, respectively. Composition and analysis of the experimental diets used in Phase II are described in Tables 20 and 21, respectively. Diets in treatments 1 and 6 contained the high lactose levels of 20% and 10% in Phase I and II, respectively. All other treatments had diets containing the low lactose levels of 5% and 2.5% in Phase I and II, respectively. Antibiotic, GEM blend and OTM treatments during the two phases were as follows:
Phase I (0 to 7 Days): • 1. High lactose (20%)+enteric antibiotic. • 2. Low lactose (5%)+enteric antibiotic. • 3. Low lactose (5%)+enteric antibiotic+GEM blend. • 4. Low lactose (5%)+enteric antibiotic+OTM. • 5. Low lactose (5%)+enteric antibiotic+OTM+GEM blend. • 6. […]

Assay [2] has as its system nursery pigs. In words: Example 1: lactose level and acidifying agent in nursery pig diets, growth performance (BW, ADG, ADFI, GF). The conditions noted are these: for feed intake: Phase I; for average daily feed intake (ADFI): Phase II. In kind it is in vivo. The source says: The following study was designed to determine whether a feed supplement comprising an acidifying agent could counteract the negative effects of lower levels of lactose in nursery pigs. A two-phase feeding program, with and without an acidifying agent comprising 2-hydroxy-4-methylthiobutanoic acid, fumaric acid, and benzoic acid (i.e., as provided by ACTIVATE® DA, Novus Intl), was implemented with industry norms for energy, digestible amino acids, vitamins, and minerals. The two-phase feeding program introduced ingredients in a progressive way to gently enhance maturation of the gastrointestinal system, while at the same time supplying special ingredients that should encourage maximal growth performance. The pigs were fed a Phase I diet from weaning to 10 days post weaning, and a Phase II diet from days 11 to 21 post weaning. The levels of lactose were varied in each diet phase and each level of lactose was examined with and without the acidifying agent.
A total of approximately 840 commercial breed nursery pigs (TR-4X C22 PIC lines, PIC Intl., Franklin, Ky.) were blocked by weight and sex, and then placed into a pen containing about 20-22 pigs per pen. There were a total of 42 pens that were used for 7 replications/treatment with approximately equal numbers of pens per sex/treatment. Treatments were randomly assigned to pens within a room prior to treatment initiation. Each pen was accounted as an experimental unit. The animals were cared for according to standard site practices, which include daily observations, temperature monitoring, feeder observations, and waterer observations.
Diets were balanced to meet 60 TID Met & Cys:Lys. The ideal amino acid ratio of Thr, Tryp, Ile, and Val to Lys was maintained at a minimum of 65%, 16%, 55%, and 65%, respectively, based on the TID ideal amino acid profile for swine. Diets that included the acidifying agent used MHA (DL-methionine hydroxyl analog) to balance for the methionine source, while diets without the acidifying agent used DL-Met as a methionine source. All diets were balanced to have equivalent methionine activity and properly mixed according to the diet formulations presented in Table 1 and Table 2 for Phase I, and Table 4 and Table 5 for Phase II. Calculated analyses of the diets are presented in Tables 3 and 6 for Phase I and II, respectively.
The treatment arrangements were a 3×2 factorial arrangement with three levels of lactose with and without the acidifying agent (i.e., ACTIVATE® DA at a 0.5%). Diets were formulated to provide 5%, 10%, or 20% lactose equivalent during Phase I (0 to 10 days post weaning) and 2.5%, 5%, or 10% lactose equivalent during Phase II (11 to 21 days post weaning). The lactose equivalent was provided by […]-80® (80% lactose content; International Ingredient Corporation, St. Louis, Mo.). Fishmeal and SDPP were held constant across the diets, and corn and CWG were allowed to float to provide similar energy levels. All diets were supplemented with the enteric antibiotic carbodox (i.e., MECADOX®, Phibro Animal Health, Ridgefield Park, N.J.).
The animals were observed daily including weekends and holidays. Any abnormal observations or mortalities were recorded by pen with weight and date. The body weights of the pigs were collected initially and at the end of each phase. The feed intake was collected for each phase of growth. Feed offered was measured by weighing each amount of feed used for each pen. Feed refused was measured by weighing the amount of feed left in the feeder and any remainder that had previously been recorded as feed offered.
Data were analyzed by analysis of variance procedures appropriate for a randomized block design using the General Linear Models procedure of SAS. Differences of least squares means for treatments from control pigs were determined using a least square comparison.

Regarding `COC(=O)N/N=C/c1c[n+]([O-])c2ccccc2[n+]1[O-]` [enteric antibiotic, carbodox], the feed intake in assay [1] was determined as 179 g/day.
In the case of `OC[C@H]1O[C@@H](O[C@H]2[C@H](O)[C@@H](O)C(O)O[C@@H]2CO)[C@H](O)[C@@H](O)[C@H]1O` (stereo partly shown) [lactose], the results for the feed intake in assay [2] (high level of lactose (20%)), in assay [2] (intermediate level of lactose (10%)) and in assay [2] (lowest level of lactose (5%)) were 146 g/day, 150 g/day and 132 g/day, respectively. The “average daily feed intake (ADFI)” value in assay [2] (highest lactose level (10%)) is 408 g/day; in assay [2] (intermediate lactose level (5%)), 400 g/day; in assay [2] (lowest lactose level ([…])), 384 g/day.
